Measurements taken from patent publication US10793568B2, “Hormone receptor modulators for treating metabolic conditions and disorders” (ARDELYX, INC., priority 2016, dated 2020).

Columns and labels:
[1] = molecular target: human Farnesoid X receptor ligand-binding domain/Gal4 DNA binding domain chimera (Homo sapiens (Human), UniProt Q96RI1); assay: Cell-based assay of FXR activation (FXR-UAS-bla HEK 293T beta-lactamase reporter); settings: cellular FXR beta-lactamase reporter assay; for Emax: HEK-293T, extent of activation relative to GW4064, read-out: % Efficacy; for EC50: FXR-UAS-bla HEK 293T cells, 16 h, pEC50 = -log EC50
Outline: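 Readout is cleavage of the CCF4 FRET substrate (409 nm excitation, blue 447 nm signal) by beta-lactamase, expressed under UAS control after a Gal4–human FXR LBD chimera is activated in HEK 293T cells. Compounds were added as 3-fold dilutions for 16 h at 37 °C in 2% charcoal-stripped FBS medium. Curves were fit to a 3-parameter logistic equation to give pEC50, with % activation relative to GW4064.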

[2] = molecular target: ligand binding domain of human FXR (Homo sapiens (Human), UniProt Q96RI1); assay: FXR ligand binding assay (LanthaScreen TR-FRET, SRC2-2 peptide recruitment); settings: for pEC50: -log EC50, concentration required to produce 50% activation; for Emax: extent of activation relative to GW4064, read-out: % Efficacy
Sequence of ligand binding domain of human FXR (Q96RI1 262-486): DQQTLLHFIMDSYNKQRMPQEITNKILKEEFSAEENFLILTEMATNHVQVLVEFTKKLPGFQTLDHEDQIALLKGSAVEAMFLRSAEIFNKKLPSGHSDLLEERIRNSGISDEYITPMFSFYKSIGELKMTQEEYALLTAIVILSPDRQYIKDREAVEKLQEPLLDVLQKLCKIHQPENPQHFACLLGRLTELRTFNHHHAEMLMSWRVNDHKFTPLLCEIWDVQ

Sequence of human Farnesoid X receptor ligand-binding domain/Gal4 DNA binding domain chimera (Q96RI1 262-486, change not shown): as the sequence (Q96RI1 262-486) above
Sequence of human Farnesoid X receptor ligand-binding domain/Gal4 DNA binding domain chimera (P04386 1-147 partner): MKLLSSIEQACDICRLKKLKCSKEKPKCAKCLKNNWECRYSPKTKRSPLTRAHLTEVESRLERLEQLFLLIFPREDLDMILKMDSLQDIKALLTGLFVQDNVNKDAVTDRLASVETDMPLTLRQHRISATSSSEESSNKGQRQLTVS

| SMILES | Emax [1] | EC50 [1] | pEC50 [2] | Emax [2] |
| --- | --- | --- | --- | --- |
| O=C(O)C1(c2ccc(N3C[C@@H]4C[C@H]3C[C@H]4OCc3c(-c4c(Cl)cccc4Cl)noc3C3CC3)cc2)CC1 [Compound I-149, 1-{4-[(1S,4S,5R)-5-{[5-cyclopropyl-3-(2,6-dichlorophenyl)-1,2-oxazol-4-yl]methoxy}-2-azabicyclo[2.2.1]heptan-2-yl]phenyl}cyclopropane-1-carboxylic Acid] | 101% | 0.0631 µM | 8.2 | 106% |
| O=C(O)C1(c2ccc(N3C[C@@H]4C[C@H]3C[C@H]4OCc3c(-c4c(Cl)cccc4Cl)noc3C3CC3)cc2)CCC1 [Compound I-150, 1-{4-[(1S,4S,5R)-5-{[5-cyclopropyl-3-(2,6-dichlorophenyl)-1,2-oxazol-4-yl]methoxy}-2-azabicyclo[2.2.1]heptan-2-yl]phenyl}cyclobutane-1-carboxylic Acid] | 96% | 0.0251 µM | 8.9 | 102% |
| O=C(O)C1CC(c2ccc(N3C[C@@H]4C[C@H]3C[C@H]4OCc3c(-c4c(Cl)cccc4Cl)noc3C3CC3)cc2)C1 (stereo partly drawn) [Compound I-151, 3-{4-[(1S,4S,5R)-5-{[5-cyclopropyl-3-(2,6-dichlorophenyl)-1,2-oxazol-4-yl]methoxy}-2-azabicyclo[2.2.1]heptan-2-yl]phenyl}cyclobutane-1-carboxylic Acid] | 106% | 0.0251 µM | 8.6 | 134% |
| CC(CC(=O)O)c1ccc(N2C[C@@H]3C[C@H]2C[C@H]3OCc2c(-c3c(Cl)cccc3Cl)noc2C2CC2)c(F)c1 (stereo partly drawn) [Compound I-152, 3-{4-[(1S,4S,5R)-5-{[5-cyclopropyl-3-(2,6-dichlorophenyl)-1,2-oxazol-4-yl]methoxy}-2-azabicyclo[2.2.1]heptan-2-yl]-3-fluorophenyl}butanoic Acid] | 105% | 0.00501 µM |  | 132% |
| O=C(O)Cc1ccc(N2C[C@@H]3C[C@H]2C[C@H]3OCc2c(-c3c(Cl)cccc3Cl)noc2C2CC2)c(F)c1 [Compound I-153, 2-{4-[(1S,4S,5R)-5-{[5-cyclopropyl-3-(2,6-dichlorophenyl)-1,2-oxazol-4-yl]methoxy}-2-azabicyclo[2.2.1]heptan-2-yl]-3-fluorophenyl}acetic Acid] | 100% | 0.01 µM | 9.2 | 130% |
| O=C(O)CCc1ccc(N2C[C@@H]3C[C@H]2C[C@H]3OCc2c(-c3c(Cl)cccc3Cl)noc2C2CC2)c(F)c1 [Compound I-154, 3-{4-[(1S,4S,5R)-5-{[5-cyclopropyl-3-(2,6-dichlorophenyl)-1,2-oxazol-4-yl]methoxy}-2-azabicyclo[2.2.1]heptan-2-yl]-3-fluorophenyl}propanoic Acid] | 105% | 0.000501 µM | 8.6 | 158% |
| O=C(O)CCc1ccc(N2C[C@@H]3C[C@H]2C[C@H]3OCc2c(-c3c(Cl)cccc3Cl)noc2C2CC2)cc1F [Compound I-155, 3-{4-[(1S,4S,5R)-5-{[5-cyclopropyl-3-(2,6-dichlorophenyl)-1,2-oxazol-4-yl]methoxy}-2-azabicyclo[2.2.1]heptan-2-yl]-2-fluorophenyl}propanoic Acid] | 102% | 0.001 µM | 8.3 | 136% |
| CC(C)(Cc1ccc(N2C[C@@H]3C[C@H]2C[C@H]3OCc2c(-c3c(Cl)cccc3Cl)noc2C2CC2)cc1F)C(=O)O [Compound I-156, 3-{4-[(1S,4S,5R)-5-{[5-cyclopropyl-3-(2,6-dichlorophenyl)-1,2-oxazol-4-yl]methoxy}-2-azabicyclo[2.2.1]heptan-2-yl]-2-fluorophenyl}-2,2-dimethylpropanoic Acid] | 105% | 0.0398 µM | 7.6 | 128% |
| O=C(O)CCCc1ccc(N2C[C@@H]3C[C@H]2C[C@H]3OCc2c(-c3c(Cl)cccc3Cl)noc2C2CC2)c(F)c1 [Compound I-157, 4-{4-[(1S,4S,5R)-5-{[5-cyclopropyl-3-(2,6-dichlorophenyl)-1,2-oxazol-4-yl]methoxy}-2-azabicyclo[2.2.1]heptan-2-yl]-3-fluorophenyl}butanoic Acid] | 100% | 0.00251 µM | 8.2 | 134% |
| N#Cc1cc(CCC(=O)O)ccc1N1C[C@@H]2C[C@H]1C[C@H]2OCc1c(-c2c(Cl)cccc2Cl)noc1C1CC1 [Compound I-158, 3-{3-cyano-4-[(1S,4S,5R)-5-{[5-cyclopropyl-3-(2,6-dichlorophenyl)-1,2-oxazol-4-yl]methoxy}-2-azabicyclo[2.2.1]heptan-2-yl]phenyl}propanoic Acid] | 104% | 0.00631 µM | 7.6 | 126% |
| Cc1cccc(Cl)c1-c1noc(C2CC2)c1CO[C@@H]1C[C@@H]2C[C@H]1CN2c1ccc(CCC(=O)O)cc1F [Compound I-159, 3-{4-[(1S,4S,5R)-5-{[3-(2-chloro-6-methylphenyl)-5-cyclopropyl-1,2-oxazol-4-yl]methoxy}-2-azabicyclo[2.2.1]heptan-2-yl]-3-fluorophenyl}propanoic Acid] | 100% | 0.00158 µM | 8.2 | 144% |
| O=C(O)C1CN(Cc2ccc(N3C[C@@H]4C[C@H]3C[C@H]4OCc3c(-c4c(Cl)cccc4Cl)noc3C3CC3)cc2)C1 [Compound I-160, 1-({4-[(1S,4S,5R)-5-{[5-cyclopropyl-3-(2,6-dichlorophenyl)-1,2-oxazol-4-yl]methoxy}-2-azabicyclo[2.2.1]heptan-2-yl]phenyl}methyl)azetidine-3-carboxylic Acid] | 110% | 1 µM | 6.9 | 93% |
| O=CN(O)Cc1ccc(N2C[C@@H]3C[C@H]2C[C@H]3OCc2c(-c3c(Cl)cccc3Cl)noc2C2CC2)cc1 [Compound I-161, N-({4-[(1S,4S,5R)-5-{[5-cyclopropyl-3-(2,6-dichlorophenyl)-1,2-oxazol-4-yl]methoxy}-2-azabicyclo[2.2.1]heptan-2-yl]phenyl}methyl)-N-hydroxyformamide] | 102% | 0.0126 µM | 6.9 | 134% |
| Fc1cc(CCc2nn[nH]n2)ccc1N1C[C@@H]2C[C@H]1C[C@H]2OCc1c(-c2c(Cl)cccc2Cl)noc1C1CC1 [Compound I-162, (1S,4S,5R)-5-{[5-cyclopropyl-3-(2,6-dichlorophenyl)-1,2-oxazol-4-yl]methoxy}-2-{2-fluoro-4-[2-(2H-1,2,3,4-tetrazol-5-yl)ethyl]phenyl}-2-azabicyclo[2.2.1]heptane] | 105% | 0.00631 µM | 8.1 | 140% |
| O=C(CCc1ccc(N2C[C@@H]3C[C@H]2C[C@H]3OCc2c(-c3c(Cl)cccc3Cl)noc2C2CC2)c(F)c1)OCCN(CCO)CCO [Compound I-163, 2-[bis(2-hydroxyethyl)amino]ethyl 3-{4-[(1S,4S,5R)-5-{[5-cyclopropyl-3-(2,6-dichlorophenyl)-1,2-oxazol-4-yl]methoxy}-2-azabicyclo[2.2.1]heptan-2-yl]-3-fluorophenyl}propanoate] | 99% | 0.00126 µM | 7.5 | 154% |
| O=C(NCc1nn[nH]n1)c1ccc(N2C[C@@H]3C[C@H]2C[C@H]3OCc2c(-c3c(Cl)cccc3Cl)noc2C2CC2)cc1 [Compound I-164, 4-[(1S,4S,5R)-5-{[5-cyclopropyl-3-(2,6-dichlorophenyl)-1,2-oxazol-4-yl]methoxy}-2-azabicyclo[2.2.1]heptan-2-yl]-N-(2H-1,2,3,4-tetrazol-5-ylmethyl)benzamide] | 118% | 0.0794 µM | 9.7 | 148% |
| O=C(O)CNC(=O)c1ccc(N2C[C@@H]3C[C@H]2C[C@H]3OCc2c(-c3c(Cl)cccc3Cl)noc2C2CC2)cc1 [Compound I-165, 2-({4-[(1S,4S,5R)-5-{[5-cyclopropyl-3-(2,6-dichlorophenyl)-1,2-oxazol-4-yl]methoxy}-2-azabicyclo[2.2.1]heptan-2-yl]phenyl}formamido)acetic Acid] | 107% | 0.02 µM | 8.4 | 140% |
| O=C(NCCS(=O)(=O)O)c1ccc(N2C[C@@H]3C[C@H]2C[C@H]3OCc2c(-c3c(Cl)cccc3Cl)noc2C2CC2)cc1 [Compound I-166, 2-({4-[(1S,4S,5R)-5-{[5-cyclopropyl-3-(2,6-dichlorophenyl)-1,2-oxazol-4-yl]methoxy}-2-azabicyclo[2.2.1]heptan-2-yl]phenyl}formamido)ethane-1-sulfonic Acid] | 114% | 0.0501 µM | 8.7 | 154% |
| O=C(O)CNC(=O)c1ccc(N2C[C@@H]3C[C@H]2C[C@H]3OCc2c(-c3c(Cl)cccc3Cl)noc2C2CC2)cc1F [Compound I-167, 2-({4-[(1S,4S,5R)-5-{[5-cyclopropyl-3-(2,6-dichlorophenyl)-1,2-oxazol-4-yl]methoxy}-2-azabicyclo[2.2.1]heptan-2-yl]-2-fluorophenyl}formamido)acetic Acid] | 106% | 0.00794 µM | 8.7 | 152% |
| O=C(NCCS(=O)(=O)O)c1ccc(N2C[C@@H]3C[C@H]2C[C@H]3OCc2c(-c3c(Cl)cccc3Cl)noc2C2CC2)cc1F [Compound I-168, 2-({4-[(1S,4S,5R)-5-{[5-cyclopropyl-3-(2,6-dichlorophenyl)-1,2-oxazol-4-yl]methoxy}-2-azabicyclo[2.2.1]heptan-2-yl]-2-fluorophenyl}formamido)ethane-1-sulfonic Acid] | 107% | 0.1 µM | 8.6 | 164% |
